Test results taken from patent US20070049564A1 (Wyeth, priority 2005, published 2007).
Values after ≈ are worked out from the molar mass of the structure shown. Like-named read-outs stand apart in the source and are kept apart here.

Columns and labels:
[1] = tested on: E. coli GC 2233; experiment: MIC, broth microdilution; details: Escherichia coli, GC2233, E. coli GC 2233
[2] = tested on: S. aureus GC 6335; experiment: MIC, broth microdilution; details: Staphylococcus aureus, GC6335, S. aureus GC 6335
[3] = tested on: E. coli GC 2270; experiment: MIC, broth microdilution; details: Escherichia coli, GC2270, E. coli GC 2270
[4] = tested on: E. coli GC 2235; experiment: MIC, broth microdilution; details: Escherichia coli, GC2235, E. coli GC 2235
[5] = tested on: S. typhimurium GC 2172; experiment: MIC, broth microdilution; details: Salmonella enterica, TYPHIMURIUM, S. typhimurium GC 2172
[6] = tested on: E. coli GC 2271; experiment: MIC, broth microdilution; details: Escherichia coli, GC2271, E. coli GC 2271
[7] = tested on: E. faecium GC 4556; experiment: MIC, broth microdilution; details: Enterococcus faecium, GC4556, E. faecium GC 4556
[8] = tested on: S. aureus GC 6469; experiment: MIC, broth microdilution; details: Staphylococcus aureus, GC6469, S. aureus GC 6469
[9] = tested on: c. albicans GC 3066; experiment: MIC, broth microdilution
[10] = tested on: E. coli GC 3226; experiment: MIC, broth microdilution; details: Escherichia coli, GC3226, E. coli GC 3226
[11] = tested on: E. faecium GC 2243; experiment: MIC, broth microdilution; details: Enterococcus faecium, GC2243, E. faecium GC 2243
[12] = tested on: S. aureus GC 1079; experiment: MIC, broth microdilution; details: Staphylococcus aureus, GC1079, S. aureus GC 1079
[13] = tested on: S. pyogenes GC 4563; experiment: MIC, broth microdilution; details: Streptococcus pyogenes, GC4563, S. pyogenes GC 4563
[14] = tested on: S. agalactiae GC 4564; experiment: MIC, broth microdilution; details: Streptococcus agalactiae, GC4564, S. agalactiae GC 4564
[15] = tested on: E. coli GC 1073; experiment: MIC, broth microdilution; details: Escherichia coli, GC1073, E. coli GC 1073
[16] = tested on: Staph.; experiment: Range of MIC for Staph. strains, including MRSA; details: Staphylococcus aureus, MRSA
[17] = tested on: E. faecalis GC 2265; experiment: MIC, broth microdilution; details: Enterococcus faecalis, GC2265, E. faecalis GC 2265
[18] = tested on: E. coli; experiment: Range of MIC for E. coli strains; details: Escherichia coli
Method: Antimicrobial susceptibility testing. The in vitro activities of the antibiotics are determined by the broth microdilution method as recommended by the National Committee for Clinical Laboratory Standards (NCCLS) (1). Mueller-Hinton II broth (MHBII)(BBL Cockeysville, Md.) is the medium employed in the testing procedures. Microtiter plates containing serial dilutions of each antimicrobial agent are inoculated with each organism to yield the appropriate density (10^5 CFU/ml) in a 100 μl final volume. The plates are incubated for 18-22 hours at 35° C. in ambient air.
Representative compounds were first incubated in mouse serum for an hour prior to the in vitro testing against a panel of selected gram-positive and gram-negative bacteria strains. All compounds were also pre-incubated in water for an hour prior to testing as control. Representative compounds of Formula I were incubated in human serum prior to MIC determination.

[19] = tested on: E. coli GC 2236; experiment: MIC, broth microdilution; details: Escherichia coli, GC2236, E. coli GC 2236
[20] = tested on: E. faecalis GC 4555; experiment: MIC, broth microdilution; details: Enterococcus faecalis, GC4555, E. faecalis GC 4555

CCCCN(CC(=O)Nc1cc(N(C)C)c2c(c1O)C(=O)C1=C(O)[C@]3(O)C(=O)C(C(N)=O)=C(O)[C@@H](N(C)C)C3CC1C2)C(=O)OCOC(=O)c1ccc(OC)cc1 (stereo partly drawn) [Example 2, ({[(2-{[(7S,10aS)-9-(aminocarbonyl)-4,7-bis(dimethylamino)-1,8,10a,11-tetrahydroxy-10,12-dioxo-5,5a,6,6a,7,10,10a,12-octahydrotetracen-2-yl]amino}-2-oxoethyl)(butyl)amino]carbonyl}oxy)methyl 4-methoxybenzoate]
MIC ([1]; Mouse Serum pre-incubation): 1 µg/mL (≈ 1.26 µM) | MIC ([1]; Water pre-incubation): 64 µg/mL (≈ 80.6 µM) | MIC ([2]; Mouse Serum pre-incubation): 8 µg/mL (≈ 10.1 µM) | MIC ([2]; Water pre-incubation): 8 µg/mL (≈ 10.1 µM) | MIC ([3]; Mouse Serum pre-incubation): 1 µg/mL (≈ 1.26 µM) | MIC ([3]; Water pre-incubation): 64 µg/mL (≈ 80.6 µM) | MIC ([4]; Mouse Serum pre-incubation): 2 µg/mL (≈ 2.52 µM) | MIC ([4]; Water pre-incubation): 64 µg/mL (≈ 80.6 µM) | MIC ([5]; Mouse Serum pre-incubation): > 64 µg/mL | MIC ([5]; Water pre-incubation): > 64 µg/mL | MIC ([6]; Mouse Serum pre-incubation): 1 µg/mL (≈ 1.26 µM) | MIC ([6]; Water pre-incubation): 64 µg/mL (≈ 80.6 µM) | MIC ([7]; Mouse Serum pre-incubation): 4 µg/mL (≈ 5.04 µM) | MIC ([7]; Water pre-incubation): 8 µg/mL (≈ 10.1 µM) | MIC ([8]; Mouse Serum pre-incubation): 2 µg/mL (≈ 2.52 µM) | MIC ([8]; Water pre-incubation): 4 µg/mL (≈ 5.04 µM) | MIC ([9]; Candida albicans, GC3066): > 64 µg/mL | MIC ([9]; c. albicans GC 3066, Water pre-incubation): >64 UG/ML | MIC ([10]; Mouse Serum pre-incubation): 4 µg/mL (≈ 5.04 µM) | MIC ([10]; Water pre-incubation): 64 µg/mL (≈ 80.6 µM) | MIC ([11]; Mouse Serum pre-incubation): 1 µg/mL (≈ 1.26 µM) | MIC ([11]; Water pre-incubation): 4 µg/mL (≈ 5.04 µM) | MIC ([12]; Mouse Serum pre-incubation): 8 µg/mL (≈ 10.1 µM) | MIC ([12]; Water pre-incubation): 8 µg/mL (≈ 10.1 µM) | MIC ([13]; Mouse Serum pre-incubation): 0.25 µg/mL (≈ 0.315 µM) | MIC ([13]; Water pre-incubation): 0.25 µg/mL (≈ 0.315 µM) | MIC ([14]; Mouse Serum pre-incubation): 2 µg/mL (≈ 2.52 µM) | MIC ([14]; Water pre-incubation): 2 µg/mL (≈ 2.52 µM) | MIC ([15]; Mouse Serum pre-incubation): 4 µg/mL (≈ 5.04 µM) | MIC ([15]; Water pre-incubation): 64 µg/mL (≈ 80.6 µM) | MIC ([16]; read-out: Minimum inhibitory concentration (MIC), Staph. (mouse serum)): 1 to 8 µg/mL (≈ 1.26 to 10.1 µM) | MIC ([16]; read-out: Minimum inhibitory concentration (MIC), Staph. (water)): 2 to 8 µg/mL (≈ 2.52 to 10.1 µM) | MIC ([16]; read-out: Range of MIC, Staph (Mouse Serum)): 1 to 8 µg/mL (≈ 1.26 to 10.1 µM) | MIC ([16]; read-out: Range of MIC, Staph (Water)): 2 to 8 µg/mL (≈ 2.52 to 10.1 µM) | MIC ([17]; Mouse Serum pre-incubation): 4 µg/mL (≈ 5.04 µM) | MIC ([17]; Water pre-incubation): 8 µg/mL (≈ 10.1 µM) | MIC ([18]; 20 h, read-out: Range of MIC, E. coli (Mouse Serum)): 1 to 4 µg/mL (≈ 1.26 to 5.04 µM) | MIC ([18]; read-out: Minimum inhibitory concentration (MIC), E. coli (mouse serum)): 1 to 4 µg/mL (≈ 1.26 to 5.04 µM) | MIC ([18]; read-out: Minimum inhibitory concentration (MIC), E. coli (water)): 32 to 64 µg/mL (≈ 40.3 to 80.6 µM) | MIC ([18]; read-out: Range of MIC, E. coli (Water)): 32 to 64 µg/mL (≈ 40.3 to 80.6 µM) | MIC ([19]; Mouse Serum pre-incubation): 4 µg/mL (≈ 5.04 µM) | MIC ([19]; Water pre-incubation): 32 µg/mL (≈ 40.3 µM) | MIC ([20]; Mouse Serum pre-incubation): 2 µg/mL (≈ 2.52 µM) | MIC ([20]; Water pre-incubation): 4 µg/mL (≈ 5.04 µM)
